Laboratory results published in ChEMBL document CHEMBL3881528, “Macrocyclic Quinoxaline Compounds as HCV NS3 Protease Inhibitors” (2010).

Columns and labels:
Liver = assay: Covalent protein binding in rat liver at 25 to 75 […], po using radio-labeled compound measured at 6 hrs by scintillation counting method; assay type: ADME, organism-based; conditions: in vivo
Plasma = assay: Covalent protein binding in rat plasma at 25 to 75 […], po using radio-labeled compound measured at 6 hrs by scintillation counting method; assay type: ADME, organism-based
[1] = Drug level in dog liver at 5 mg/kg, po measured at 24 hrs by RP-HPLC method; assay type: ADME, organism-based, Canis lupus familiaris; conditions: read-out: Drug uptake
[2] = Drug level in rat liver at 25 mg/kg, po measured at 24 hrs by RP-HPLC method; assay type: ADME, organism-based; conditions: read-out: Drug uptake

SMILES	PB (Liver)	PB (Plasma)	concentration at 24 h [1]	concentration at 24 h [2]
C=C[C@@H]1C[C@]1(NC(=O)[C@@H]1C[C@@H]2CN1C(=O)[C@H](C(C)(C)C)NC(=O)O[C@@H]1C[C@H]1CCCCCc1nc3ccc(OC)cc3nc1O2)C(=O)[N-]S(=O)(=O)C1CC1.[K+]	3 pmolequiv/mg	3 pmolequiv/mg	120 µM	27.9 µM
C=C[C@@H]1C[C@]1(NC(=O)[C@@H]1C[C@@H]2CN1C(=O)[C@H](C(C)(C)C)NC(=O)O[C@@H]1CCC[C@H]1CCCCCc1nc3ccc(OC)cc3cc1O2)C(=O)NS(=O)(=O)C1CC1	24 pmolequiv/mg	6 pmolequiv/mg	–	–
C=C[C@@H]1C[C@]1(NC(=O)[C@@H]1C[C@@H]2CN1C(=O)[C@H](C(C)(C)C)NC(=O)O[C@@H]1C[C@H]1CCCCCc1nc3ccc(OC)cc3cc1O2)C(=O)[N-]S(=O)(=O)C1CC1.[K+]	–	–	3.3 µM	8.5 µM
C=C[C@@H]1C[C@]1(NC(=O)[C@@H]1C[C@@H]2CN1C(=O)[C@H](C1CCCC1)NC(=O)O[C@@H]1CCC[C@H]1CCCCCc1nc3ccccc3cc1O2)C(=O)NS(=O)(=O)C1CC1	63 pmolequiv/mg	6 pmolequiv/mg	–	–
C=C[C@@H]1C[C@]1(NC(=O)[C@@H]1C[C@@H]2CN1C(=O)[C@H](C1CCCC1)NC(=O)O[C@@H]1CCC[C@H]1CCCCCc1nc3ccccc3nc1O2)C(=O)NS(=O)(=O)C1CC1	38 pmolequiv/mg	15 pmolequiv/mg	–	–
